Measured values reported in publication PMC3368874, “Characterization of 4-HNE Modified L-FABP Reveals Alterations in Structural and Functional Dynamics” (PLoS ONE, 2012).

What was measured:
4-HNE modified rL-FABP = target: T1, 4-HNE modified rL-FABP (Mus musculus, UniProt P12710); assay: ANS equilibrium binding to 4-HNE treated rL-FABP (fluorescence); settings: saturation analyses
T1 construct: made in house; host or cells: Escherichia coli BL21 (DE3)
T1 sequence (P12710 1-127): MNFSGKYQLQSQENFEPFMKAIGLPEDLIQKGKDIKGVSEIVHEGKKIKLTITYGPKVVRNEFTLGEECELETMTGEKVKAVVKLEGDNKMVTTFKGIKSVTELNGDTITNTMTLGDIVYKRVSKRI
Procedure: Steady-state fluorescence spectra were measured using a HORIBA JOBIN YVON FluoroMax-3 Fluorometer (Edison, NJ USA). The binding of ANS to rL-FABP was monitored following excitation at 370 nm and emission at 475 nm, with slits set at 2 and 4 nm, respectively. Measurements were taken at ambient temperature in a 0.7 mL fluorescence cuvette (Starna Cells, Atascadero, CA). Equilibrium binding studies were conducted with saturating concentrations of ANS according to previous studies, [30] with slight modifications. Briefly, ANS (0–45 µM) was titrated into 1 µM rL-FABP in 50 mM tricine buffer (pH 8.0), mixed for 30 seconds, and emission spectra were recorded. rL-FABP was either treated with 4-HNE (0.1X [5.93 µM], 1X [53.93 µM], or 5X [245.09 µM]) or the arginine blocker phenylglyoxal (PG) (10 mM), or a combination of the two (PG +5X). Following treatments, protein was dialyzed overnight in tricine buffer, pH 8.0. Preparation of ANS was conducted according to Denicola et al., where it was solubilized in absolute ethanol and quantified at Abs372 with an extinction coefficient of 8,000 cm^−1·M^−1 prior to use.
Statistical analysis and generation of graphs was performed using GraphPad Prism (v 4.02; GraphPad Software, San Diego, CA) and SigmaPlot (v10.0; Systat Software, San Jose, CA). Statistical differences between control and treated samples were assessed using a paired Student’s t test or a one-way ANOVA with Tukey’s post-test. Differences were considered significant if p<0.05. Nonlinear regression (curve fit) analysis was performed using a two-site binding hyperbola (eq 1), where ΔF is the enhancement in fluorescence intensity upon the binding of ANS to L-FABP to a point of saturation (Bmax). [drawing 1] (1)

[1] = parameters: method as in PMID 12437335; settings: cited from earlier work
apo rL-FABP = target: T2, apo rL-FABP (Mus musculus, UniProt P12710); assay: Thermal denaturation of apo rL-FABP (UV-monitored)
T2 construct: made in house; host or cells: Escherichia coli BL21 (DE3)
T2 sequence (P12710 1-127): T1 sequence (P12710 1-127)
Procedure: (§1) The stability of rL-FABP was assessed using UV-monitored heating experiments. Native (apo and holo) and 4-HNE modified (apo and holo) rL-FABP (0.8 mg/ml) was thermally denatured in 50 mM tricine buffer (pH 8.0) at 40–95°C over 1.5 hours in a 0.7 mL quartz cell (Starna Cells). Absorbance of rL-FABP was monitored at 260–360 nm using a Chirascan Plus Spectrometer (Applied Photophysics, Leatherhead, Surrey, UK) once per minute. Temperature was continuously ramped 1°C/min. Light scattering was recorded continuously at 360 nm to monitor protein aggregation. Temperature of aggregation (Tm) was determined using Global Analysis T-Ramp software provided by Applied Photophysics (Pro-Data Global3 v1.1.0) following baseline correction.

holo rL-FABP = target: T3, holo rL-FABP (Mus musculus, UniProt P12710); assay: Thermal denaturation of holo rL-FABP (UV-monitored); settings: semi-quantitative
T3 construct: made in house; host or cells: Escherichia coli BL21 (DE3)
T3 sequence (P12710 1-127): T1 sequence (P12710 1-127)
Procedure: as §1

rL-FABP = target: T4, rL-FABP (Mus musculus, UniProt P12710); assay: Displacement of ANS by fatty acids, WT rL-FABP; type: binding
T4 construct: made in house; host or cells: Escherichia coli BL21 (DE3)
T4 sequence (P12710 1-127): T1 sequence (P12710 1-127)
Procedure: (§2) Lipid displacement assays were adapted from previous publications, [30]. Briefly, lipids were used to displace ANS bound to rL-FABP to assess how 4-HNE modification affects affinity towards more biologic ligands. Lipid stocks were diluted in absolute ethanol (10 mM, 5 mM, 1 mM, 0.1 mM) and prepared in a nitrogen gas chamber. Using conditions similar to ANS binding, increasing concentrations of FAs [stearate (SA), oleate (OA), and LA] were titrated into a pre-equilibrated solution containing 45 µM ANS, 1 µM r-LFABP, and 50 mM tricine (pH 8.0). The sample was mixed for an additional 30 seconds and the excitation and emission of ANS was measured as mentioned, where the loss of fluorescence indicates affinity towards the lipid.
(§3) For the displacement assays, one-site inhibition analysis of the data was utilized based on the fit of the data (instead of a two-site inhibition analysis) (eq2). Fluorescence counts that are inhibitable are denoted as bi, and residual counts are br. The concentration of OA, SA or LA is denoted as [FA]. The Hill constant, η, indicates the cooperativity between the binding sites, where if η >1 the sites are positively cooperative, η <1 the site are negatively cooperative, and if η = 1 the sites are non-cooperative. [drawing 2] (2)

4-HNE adducted rL-FABP = target: T5, 4-HNE adducted rL-FABP (Mus musculus, UniProt P12710); assay: Displacement of ANS by fatty acids, 1X 4-HNE treated rL-FABP; type: binding
T5 construct: made in house; host or cells: Escherichia coli BL21 (DE3)
T5 sequence (P12710 1-127): T1 sequence (P12710 1-127)
Procedure: as §2, §3

CCCCCC(O)C=CC=O (centres unmarked) [4-HNE, 4-hydroxy-2-nonenal]
reduction of capacity for ligand when adducted by 4-HNE (4-HNE modified rL-FABP): approximately 50% | half-life [1]: ~2 min | Tm of apo rL-FABP (apo rL-FABP; 0.1X 4-HNE (4.93 µM)): 70.09±0.004 °C | Tm of apo rL-FABP (apo rL-FABP; 1X 4-HNE (49.26 µM)): 68.56±0.05 °C | Tm of apo rL-FABP (apo rL-FABP; 5X 4-HNE (246.31 µM)): 66.38±0.15 °C | ΔTm of apo L-FABP by 4-HNE adduction (apo rL-FABP; P<0.01): 5.44 °C | Tm of holo rL-FABP (holo rL-FABP; 0.1X 4-HNE (4.93 µM)): 83.84±0.39 °C | Tm of holo rL-FABP (holo rL-FABP; 1X 4-HNE (49.26 µM)): 84.89±0.48 °C | Tm of holo rL-FABP (holo rL-FABP; 5X 4-HNE (246.31 µM)): 83.698±0.53 °C

CCCCC/C=C\C/C=C\CCCCCCCC(=O)O [Linoleic Acid]
br (counts residual) (rL-FABP): 164,800±43,900 AFU | n (hill coefficient) (rL-FABP): 1.38±0.26 | bi (counts inhibitable) (rL-FABP; 45 µM ANS, 1 µM protein): 888,000±54 AFU | Ki (rL-FABP; 45 µM ANS, 1 µM protein, read-out: ki (inhibition constant)): 1560 ± 290 nM | bi (counts inhibitable) (4-HNE adducted rL-FABP; 1X 4-HNE (53.95 µM) treated rL-FABP): 449,500±11,400 AFU | Ki (4-HNE adducted rL-FABP; 1X 4-HNE (53.95 µM) treated rL-FABP, read-out: ki (inhibition constant)): 2800 ± 300 nM | br (counts residual) (4-HNE adducted rL-FABP; 1X 4-HNE treated rL-FABP): 96,300±9,200 AFU | n (hill coefficient) (4-HNE adducted rL-FABP; 1X 4-HNE treated rL-FABP): 1.76±0.14 | reduction of maximal binding to the FA by 4-HNE (4-HNE adducted rL-FABP; 1X 4-HNE treated versus WT rL-FABP): 49%

B1: apo rL-FABP: purified, delipidated recombinant mouse liver fatty acid-binding protein (unbound) (protein, UniProt P12710 1-127, looked up)
Fatty acid-binding protein, …: T1 sequence (P12710 1-127)
modifications: delipidated
Tm (temperature of aggregation) (apo rL-FABP; native apo rL-FABP, 0X 4-HNE): 71.82±0.09 °C

B2: holo rL-FABP: recombinant mouse L-FABP incubated with 1 mM linoleic acid (lipid-bound) (protein, UniProt P12710 1-127, looked up)
Fatty acid-binding protein, …: T1 sequence (P12710 1-127)
modifications: linoleic acid bound
Tm (temperature of aggregation) (holo rL-FABP; native holo rL-FABP (linoleic acid bound)): 86.09±0.57 °C
